Where “and” joins values, the source holds several entries; their conditions need not be identical. Equal values may be shown once. Where a name gives a salt, the structure may show the parent alone. Read-outs that look alike come from different tables or passages of the source.
Experiments:
[1] = Acute toxicity, s.c., LD50; design: species or system mice; settings: mouse, in vivo, sc, mice, 96 hour observation
Experimental: (§1) The acute toxicity data are determined in mice. Tests 2-6 are also carried out in mice. The doses are expressed in micromole/kg. The therapeutical index (TI) is the LD/ED quotient.

[2] = tested on: spontaneous motility; experiment: Test 3: spontaneous motility; assay type: in vivo; settings: for TI (Test 3), LD/ED quotient: LD50 / ED of Test 3; for minimal effective dose: Mus musculus, ip
Experimental: 3. Lowest i.p. dose which still increases or decreases the spontaneous motility of the mice.
as §1
In Test 3 "+=motility increase" and "-=motility decrease."

[3] = tested on: catalepsy induced by tetrabenazine; experiment: Test 4: inhibition of tetrabenazine-induced catalepsy; assay type: in vivo; settings: for TI (Test 4), LD/ED quotient: LD50 / ED of Test 4; for ED50: Mus musculus, sc, read-out: ED, s.c. dose which inhibits the catalepsy induced by tetrabenazine in 50% of the mice (Test 4)
Experimental: (§2) 4. S.c. dose which inhibits the catalepsy induced by a 110 umole/kg dose of tetrabenazine, in 50% of the mice.
as §1
(§3) Tests 2, 8, 9 and 10 are suitable for the evaluation of the dopaminerg stimulating effect of the test compounds (potential anti-parkinson agent). Tests 4, 5, 6 and 7 give information about the catecholamine-uptake inhibiting effect (potential antidepressive activity).

[4] = tested on: blood pressure and nictitating membrane; experiment: Test 7: blood pressure and nictitating membrane effect; assay type: in vivo; settings: Felis catus, iv, cats; ">" = inactive in the given dose; read-out: Lowest i.v. dose which still increases the blood pressure and nictitating membrane effect (Test 7)
Experimental: (§4) Tests 7-10 are carried out in cats and rats, the doses are expressed in micromole/kg.
as §3

[5] = tested on: ptosis induced by tetrabenazine; experiment: Test 5: inhibition of tetrabenazine-induced ptosis; assay type: in vivo; settings: for TI (Test 5), LD/ED quotient: LD50 / ED of Test 5; for ED50: Mus musculus, sc, read-out: ED, s.c. dose which inhibits the ptosis induced by tetrabenazine in 50% of the mice (Test 5)
Experimental: 5. S.c. dose which inhibits the ptosis induced by a dose of 79 umole/kg of tetrabenazine, in 50% of the mice.
as §1, §3

[6] = tested on: catalepsy induced by Haloperidol; experiment: Test 2: inhibition of haloperidol-induced catalepsy; assay type: in vivo; settings: for TI (Test 2), LD/ED quotient: LD50 / ED of Test 2; for ED50: Mus musculus, sc, read-out: ED, s.c. dose which inhibits the catalepsy induced by Haloperidol in 50% of the mice (Test 2)
Experimental: (§5) 2. S.c. dose which inhibits the catalepsy induced by a 13 umole/kg dose of Haloperidol, in 50% of the mice.
as §1, §3

[7] = tested on: decrease of the rectal temperature caused by reserpine; experiment: Test 6: reserpine-induced decrease of rectal temperature; assay type: in vivo; settings: for TI (Test 6), LD/ED quotient: LD50 / ED of Test 6; for minimal effective dose: Mus musculus, sc, read-out: ED, lowest s.c. dose which still hinders the decrease of the rectal temperature caused by reserpine (Test 6)
Experimental: 6. The lowest s.c. dose which still hinders the decrease of the rectal temperature caused by the administration of a 1,6 umole/kg dose of reserpine.
as §1, §3

[8] = tested on: stereotypy; experiment: Test 8: induction of stereotypy; assay type: in vivo; settings: Rattus norvegicus, sc, rats; ">" = inactive in the given dose; read-out: Lowest s.c. dose which still induces stereotypy (Test 8)
Experimental: 8. The lowest s.c. dose which still induces stereotypy, in rats.
as §4, §3

[9] = tested on: catalepsy induced by Haloperidol / tetrabenazine; experiment: Comparison of anti-haloperidol (Test 2) and anti-tetrabenazine (Test 4) activity; assay type: in vivo, mice; settings: for Quotient of the ED values of Columns 2 and 4: ED Test 2 (haloperidol) : ED Test 4 (tetrabenazine)
Experimental: as §5, §2, §1
On comparing the dopaminerg type anti-haloperidol test and the anti-tetrabenazine activity being characteristic of the antidepressive effect the following can be stated:
The quotient of the ED values of Columns 2 and 4 is the highest for Compound I (55:13=4.2). […] The said quotient is high in the case of Nomifensine (1.6), Compound D (1.8), Compound E (2.7) and Compound F (1.7).

[10] = tested on: prolactine level; experiment: Test 10: decrease of prolactine level in ovariectomised rats; assay type: in vivo; settings: Rattus norvegicus, 96 h, after 4 days treatment with oestradiol 0.073 umole/kg, read-out: Dose which induces a significant decrease of the prolactine level (Test 10)
Experimental: 10. The dose which induces a significant decrease of the prolactine level after 4 days treatment with a dose of 0.073 umole/kg of oeastradiol, on three weeks earlier ovariectomised rats.
as §4, §3

[11] = Overall comparison with Nomifensine in the pharmacological tests; assay type: in vivo; settings: all tests
Experimental: The pharmacological activity of the compounds of the present invention is determined by the following tests:
as §1, §4

[12] = read-out: ED, lowest i.p. dose which still decreases the spontaneous motility (Test 3, -)

Structure (SMILES)	LD50 at 96 h [1] [µmol/kg]	TI (Test 3), LD/ED quotient [2]	minimal effective dose [2, 12] [µmol/kg]	TI (Test 4), LD/ED quotient [3]	ED50 [3] [µmol/kg]	minimal effective dose [4] [µmol/kg]	TI (Test 5), LD/ED quotient [5]	ED50 [5] [µmol/kg]	TI (Test 2), LD/ED quotient [6]	ED50 [6] [µmol/kg]	TI (Test 6), LD/ED quotient [7]	minimal effective dose [7] [µmol/kg]	minimal effective dose [8] [µmol/kg]	Quotient of the ED values of Columns 2 and 4 [9]	minimal effective dose [10] [µmol/kg]	also measured
CN1Cc2c(NC(=O)CN3CCCC3)cccc2C(c2ccccc2)C1 (stereo not shown) [Compound A, 4-phenyl-2-methyl-8-pyrrolidino-acetylamino-1,2,3,4-tetrahydro-isoquinoline-dimaleate]	653	3	206	11	62	5.2	15	43	8	86	8	86	89	1,4		
CC(C)NCCC(=O)Nc1cccc2c1CN(C)CC2c1ccccc1 (stereo not shown) [Compound B, 4-phenyl-8-[3'-isopropylamino-propionyl-amino]-2-methyl-1,2,3,4-tetrahydroisoquinoline-maleate]	1920	6	342	6	321	4.3	7	267	5	428	5	428	> 178	1,3	96	
CCNCC(=O)Nc1cccc2c1CN(C)CC2c1ccc(Cl)cc1 (stereo not shown) [Compound C, 8-ethylamino-acetyl-amino-4-p-chloro-phenyl-2-methyl-1,2,3,4-tetrahydroisoquinoline-maleate]	686	16	42	13	51	1.1	49	14	13	53	62	11	68	1,0		Activity compared with Nomifensine (in words) [11]: surpasses the activity of Nomifensine in three tests
CCCCNCC(=O)Nc1cccc2c1CN(C)CC2c1ccc(Cl)cc1 (stereo not shown) [Compound D, 8-butyl-amino-acetyl-amino-4-p-chloro-phenyl-2-methyl-1,2,3,4-tetrahydro-isoquinoline-maleate]	637	< 16		24	27	1	82	7.8	13	48	64	10	64	1,8	36	minimal effective dose ([2]; read-out: ED, lowest i.p. dose which still increases or decreases the spontaneous motility (Test 3, no sign)): > 40 µmol/kg; Therapeutical index in the anti-reserpine test compared with Nomifensine (in words) ([7]; anti-reserpine test): more favourable therapeutical index
CCCCNC(=O)Nc1cccc2c1CN(C)CC2c1ccc(Cl)cc1 (stereo not shown) [Compound E, 8-n-butyl-carbamoyl-amino-4-p-chloro-phenyl-2-methyl-1,2,3,4-tetrahydro-isoquinoline-maleate]	> 2050	> 66	31	> 23	90	6.1	> 66	31	> 8	246		> 205	275	2,7	143	
CCCCNC(=O)Nc1cccc2c1CN(C)CC2c1ccc(C)cc1 (stereo not shown) [Compound F, 2-methyl-8-n-butyl-carbamoyl-amino-4-p-tolyl-1,2,3,4-tetrahydro-isoquinoline-maleate]	> 2570	> 60	43	> 20	128	> 11	> 80	32	> 12	> 214	> 30	86	178	> 1,7 and 1.7	107	
CCCCNCC(=O)Nc1cccc2c1CN(C)CC2c1ccc(C)cc1 (stereo not shown) [Compound G, 8-butylamino-acetyl-amino-2-methyl-4-p-tolyl-1,2,3,4-tetrahydro-isoquinoline-maleate]	664	66	10	9	71	2.1	133	5	23	29	32	21	108	0,4		Activity compared with Nomifensine (in words) [11]: very high activity; Therapeutical index (in words) [11]: good therapeutical index; Antidepressant versus antiparkinson profile (in words) ([9]; from quotient ED2:ED4): stronger anti-dopamine, anti-parkinsone activity
CCNCC(=O)Nc1cccc2c1CN(C)CC2c1ccc(C)cc1 (stereo not shown) [Compound H, 8-ethylamino-acetyl-amino-2-methyl-4-p-tolyl-1,2,3,4-tetrahydro-isoquinoline maleate]	706	32	22	7	99	2.2	59	12	21	33	16	44	183	0,3		Therapeutical index (in words) [11]: good therapeutical index
CN1Cc2c(N)cccc2C(c2ccccc2)C1 (stereo not shown) [Nomifensine, 8-amino-4-phenyl-2-methyl-1,2,3,4-tetrahydro-isoquinoline, reference compound]	1130	40		30	37	1.4	268	4.2	20	56	40	28	23	1,6	28	Effect on spontaneous motility (in words) ([2]; mice): increases the spontaneous motility
